Assay results: ChEMBL document CHEMBL2074488, “Kinetic and selectivity differences between rodent, rabbit, and human organic cation transporters (OCT1)” (J Pharmacol Exp Ther, 2000)

How the values were obtained:
[1] = target: T1, Solute carrier family 22 member 1 (Homo sapiens, UniProt O15245); experiment: (§1) TP_TRANSPORTER: inhibition of MPP+ uptake in Xenopus laevis oocytes; format: functional, cell-based, Oocyte
T1 sequence (O15245 whole entry): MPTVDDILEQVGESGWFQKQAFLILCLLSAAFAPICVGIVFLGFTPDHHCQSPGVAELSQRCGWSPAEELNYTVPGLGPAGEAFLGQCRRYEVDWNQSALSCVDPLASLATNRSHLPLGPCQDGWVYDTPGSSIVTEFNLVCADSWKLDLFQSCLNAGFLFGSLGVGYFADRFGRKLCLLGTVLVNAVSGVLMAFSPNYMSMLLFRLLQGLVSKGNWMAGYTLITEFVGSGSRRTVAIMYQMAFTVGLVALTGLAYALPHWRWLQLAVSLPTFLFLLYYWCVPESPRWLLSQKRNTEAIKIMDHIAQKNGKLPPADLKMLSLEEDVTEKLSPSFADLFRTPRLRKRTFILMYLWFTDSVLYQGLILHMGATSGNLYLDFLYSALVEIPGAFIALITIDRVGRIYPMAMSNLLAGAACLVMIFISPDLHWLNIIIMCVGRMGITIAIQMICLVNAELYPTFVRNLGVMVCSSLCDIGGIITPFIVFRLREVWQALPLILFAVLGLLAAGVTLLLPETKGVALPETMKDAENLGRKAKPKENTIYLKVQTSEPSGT

[2] = target: T2, Solute carrier family 22 member 1 (Mus musculus, UniProt O08966); experiment: as §1; format: functional, cell-based, Oocyte
T2 sequence (O08966 whole entry): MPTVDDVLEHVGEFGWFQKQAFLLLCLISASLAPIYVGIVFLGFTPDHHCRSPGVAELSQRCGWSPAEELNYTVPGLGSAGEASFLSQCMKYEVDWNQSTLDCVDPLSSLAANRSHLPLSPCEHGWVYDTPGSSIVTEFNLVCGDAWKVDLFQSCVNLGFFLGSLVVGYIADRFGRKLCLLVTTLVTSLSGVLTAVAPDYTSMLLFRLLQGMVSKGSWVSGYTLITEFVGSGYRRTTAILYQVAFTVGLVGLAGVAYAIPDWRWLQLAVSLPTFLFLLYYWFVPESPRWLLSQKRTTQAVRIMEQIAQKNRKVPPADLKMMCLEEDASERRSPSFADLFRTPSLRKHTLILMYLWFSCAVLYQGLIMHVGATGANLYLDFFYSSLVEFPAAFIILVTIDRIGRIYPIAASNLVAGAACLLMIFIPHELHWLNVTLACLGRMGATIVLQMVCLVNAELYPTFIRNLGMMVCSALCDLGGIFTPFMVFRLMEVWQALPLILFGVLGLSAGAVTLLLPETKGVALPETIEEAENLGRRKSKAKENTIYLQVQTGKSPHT

[3] = target: T3, Solute carrier family 22 member 1 (Rattus norvegicus, UniProt Q63089); experiment: as §1; format: functional, cell-based, Oocyte
T3 sequence (Q63089 whole entry): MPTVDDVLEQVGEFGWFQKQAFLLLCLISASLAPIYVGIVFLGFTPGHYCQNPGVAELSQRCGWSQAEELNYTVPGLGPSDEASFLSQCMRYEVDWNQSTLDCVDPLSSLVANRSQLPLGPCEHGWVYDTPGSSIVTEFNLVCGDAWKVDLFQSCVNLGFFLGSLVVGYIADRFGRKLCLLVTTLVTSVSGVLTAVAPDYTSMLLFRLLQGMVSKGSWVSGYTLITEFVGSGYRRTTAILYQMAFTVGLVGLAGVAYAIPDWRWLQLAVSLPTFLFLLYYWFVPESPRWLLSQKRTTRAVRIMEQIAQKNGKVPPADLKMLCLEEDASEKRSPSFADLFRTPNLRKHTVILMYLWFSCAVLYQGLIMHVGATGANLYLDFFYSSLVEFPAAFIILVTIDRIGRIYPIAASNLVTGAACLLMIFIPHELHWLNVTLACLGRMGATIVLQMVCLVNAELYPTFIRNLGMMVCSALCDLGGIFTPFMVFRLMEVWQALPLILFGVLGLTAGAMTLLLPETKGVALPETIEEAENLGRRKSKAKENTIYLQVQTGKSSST

[4] = target: T1, Solute carrier family 22 member 1; experiment: (§2) TP_TRANSPORTER: trans-stimulation of MPP+ uptake (MPP+: 1 uM, TPeA: 200 uM) in Xenopus laevis oocytes; format: functional, cell-based; details: oocyte
[5] = target: T2, Solute carrier family 22 member 1; experiment: as §2; format: functional, cell-based; details: oocyte
[6] = target: T3, Solute carrier family 22 member 1; experiment: as §2; format: functional, cell-based; details: oocyte

Activity [4]	SMILES	Ki [1] [µM]	Ki [2] [µM]	Ki [3] [µM]	Activity [5]	Activity [6]
	CCCC[N+](CCCC)(CCCC)CCCC [TETRABUTHYLAMMONIUM]	29.6	7.3	17		
	C[N+](C)(C)C [TETRAMETHYLAMMONIUM]	12400	2040			
is not an inhibitor [-]	CCCCC[N+](CCCCC)(CCCCC)CCCCC [TETRAPENTYLAMMONIUM]				inhibitor [trans-inhibited: (at a rough estimate) 30 % of control]	inhibitor [trans-inhibited: (at a rough estimate) 80 % of control]
	CCC[N+](CCC)(CCC)CCC [TETRAPROPYLAMMONIUM]	102	19.8	21		
	CC[N+](CC)(CC)CC [TETRYLAMMONIUM]	158	128	100		
